Columns and labels:
[1] = system: Desulfovibrio alaskensis 14563; test: H2S and Log (Growth) efficacy, 10 mL Serum Vial Method; format: cell-based
Protocol: A lyophilized Desulfovibrio alaskensis 14563, Desulfovibrio longus 51456, and Desulfovibrio gabonensis 700201 pure cultures received from ATCC were resuspended individually in 500 ul of MB 1250. Aseptically, the content was transferred to a 5-mL tube of MB1250 medium. The cultures were incubated in an anaerobic chamber at 30° C. for 72 hrs. Subsequently, an individual stock culture with a final concentration of 25% glycerol were prepared by adding equal volumes of culture and 50% glycerol. 1 ml of the cultures were then transferred to 2-ml cryogenic vials and stored at −80° C. The purity of the stock cultures was evaluated through PCR, by amplifying the 16S rDNA region, and thus, it was verified that the original ATCC sample was a pure culture. 48-hour cultures of ATCC Desulfovibrio alaskensis 14563, Desulfovibrio longus 51456, and Desulfovibrio gabonensis 700201 were prepared in an anaerobic chamber. Each culture was prepared as a 1:10 culture by taking 1 milliliter (mL) of a pure culture and inoculating 9 milliliters (mL) of fresh MB1250 media. The Desulfovibrio alaskensis 14563 and Desulfovibrio gabonensis 700201 were all grown at 30° C. and the Desulfovibrio longus 51456 culture was grown at 35° C.
After the 48-hour incubation, 600 microliters (μL) were taken from the Desulfovibrio alaskensis 14563 culture and optical density (OD) was measured using a Thermofisher Spectronic 200 Spectrophotometer at 600 nm. Each culture was diluted to 0.05 OD600 in fresh MB1250 media and 5 mL of culture solution is transferred to 10 mL Vials and compound Cis stock solution is added. In Table 4 and 5, the concentrations of the compound C1 used for the experiments are listed. Each experiment was done with at least three replicates for different treatments and non-treatment controls. At 2 days, 3 days and 5 days, enumeration plates were made, and sulfide samples were taken in triplicate.
The enumerations were done in triplicate having 20 μL taken from each vial and placing them into 3 wells of first row in a 96-well plate. Then, the same serial dilution process was done with the test plate procedure as described in 96-well plate method. These enumerations were read after 7 days of growth at 30° C. in the anaerobic chamber. For the sulfide assay, 9 μL were taken from each vial and placed in 3 wells with 2% zinc acetate. The assay procedure was the same as described in 96-well plate method.

[2] = system: sulfate reducing bacteria; test: Efficacy in inhibiting H2S production from sulfate reducing bacteria; format: cell-based; settings: anaerobic conditions
Protocol: To understand the hydrogen sulfide inhibition efficacy of the N-hydroxycarboxamide compounds of the present invention, several compounds were tested. Some compounds that can be used in this H2S inhibiting composition are disclosed in Table 2. For the testing procedures, the compounds were dissolved in DMSO, resulting in a stock solution of about 8000-100000 ppm, which was subsequently diluted in 96-well plates or 10 mL serum vials containing media and selected culture to give varying concentrations from 0.09 to 1000 ppm of the compounds in final solution for efficacy testing.
Strains of commonly found bacteria were used for testing the efficacy of the compounds, viz. Desulfovibrio alaskensis, Desulfovibrio longus and Desulfovibrio gabonensis. Media for the cultures was also prepared by using a standard method. The cultures were aseptically used and incubated under anaerobic conditions. Two well established methods were used for testing various compounds:
The compounds C1, C12, C14, C15 and C16 were tested individually to understand each of their efficacies in inhibiting the H2S production from sulfate reducing bacteria, under standard temperature and pressure conditions. The efficacy of compounds C14 and C15 against hydrogen sulfide production are disclosed in Example 1, Tables 6 and 7.

O=C(CN1C(=O)c2cccc3cccc(c23)C1=O)NO [C1]
H2S ([1]; 2 days, 0.09 PPM): 233.1 PPM | Log (Growth) ([1]; 2 days, 0.09 PPM): 7.9 | H2S ([1]; 2 days, 0.19 PPM): 202.1 PPM | Log (Growth) ([1]; 2 days, 0.19 PPM): 8.0 | H2S ([1]; 2 days, 0.38 PPM): 170.4 PPM | Log (Growth) ([1]; 2 days, 0.38 PPM): 7.8 | H2S ([1]; 2 days, 0.75 PPM): 121.6 PPM | Log (Growth) ([1]; 2 days, 0.75 PPM): 7.2 | H2S ([1]; 3 days, 0.75 PPM): 190.2 PPM | Log (Growth) ([1]; 3 days, 0.75 PPM): 7.4 | H2S ([1]; 3 days, 1.5 PPM): 50.1 PPM | Log (Growth) ([1]; 3 days, 1.5 PPM): 4.8 | H2S ([1]; 3 days, 3.0 PPM): 23.1 PPM | Log (Growth) ([1]; 3 days, 3.0 PPM): 4.0 | H2S ([1]; 3 days, 6.0 PPM): 19.2 PPM | Log (Growth) ([1]; 3 days, 6.0 PPM): 0.0 | H2S ([1]; 5 days, 0.75 PPM): 253.3 PPM | Log (Growth) ([1]; 5 days, 0.75 PPM): 7.9 | H2S ([1]; 5 days, 1.5 PPM): 69.9 PPM | Log (Growth) ([1]; 5 days, 1.5 PPM): 6.2 | H2S ([1]; 5 days, 3.0 PPM): 19.5 PPM | Log (Growth) ([1]; 5 days, 3.0 PPM): 1.0 | H2S ([1]; 5 days, 6.0 PPM): 15 PPM | Log (Growth) ([1]; 5 days, 6.0 PPM): 0.0 | efficacy for inhibiting hydrogen sulfide production [2]: highest efficacy

— patent US20230183640A1, “METABOLIC INHIBITORS WITH EFFICACY FOR INHIBITING SULFIDE PRODUCTION IN HARSH ENVIRONMENTS” (MC (US) 3 LLC, priority 2020, published 2023)
